Assay results as given in patent publication US20230000996A1, “RAPAFUCIN DERIVATIVE COMPOUNDS AND METHODS OF USE THEREOF” (The Johns Hopkins University, priority 2019, published 2023).

System: A549
Assay: Cell proliferation assay (Prolif.), IC50 scored relative to DMSO control
Type: cell-based
Conditions: A549 cells, IC50 class relative to DMSO control
Method: Cell Proliferation Assay (Prolif.) Guo et al. (2018) Nat. Chem. 11:254-63. Specific cell lines are indicated in each assay and cultured in complete growth media. Activity is scored according to the IC50 values relative to DMSO control. “Low” indicates an IC50 greater than 600 nM, “Medium” indicates an IC50 between 300 nM and 600 nM “High” indicates an IC50 less than 300 nM. “Rel.Uptake” refers to uptake activity characterization relative to a single concentration assay. “Low” indicates a response greater than 0.6 times the activity relative to DMSO, “Medium” indicates a response between 0.6 and 0.3 times the activity relative to DMSO, “High” indicates a response less than 0.3 times the activity relative to DMSO.

SMILES	Prolif, A549
CCCC[C@H]1C(=O)N[C@@H](Cc2ccc3ccccc3c2)C(=O)N(C)[C@@H](COC(C)(C)C)C(=O)NCC(=O)N(C)CCC=CC(=O)OCC(C)(C)C(=O)C(=O)N2CCCC[C@H]2C(=O)O[C@H](CCc2cc(OC)c(OC)c(OC)c2)c2cccc(c2)OCC(=O)N1C [Compound 560]	me- dium
CCCC[C@H]1C(=O)N[C@@H](Cc2ccc3ccccc3c2)C(=O)N(C)[C@@H](COC(C)(C)C)C(=O)NCC(=O)N(C)CCC=CC(=O)OCC(C)(C)C(=O)C(=O)N2CCCC[C@H]2C(=O)O[C@H](CCc2ccc(OC)c(OC)c2OC)c2cccc(c2)OCC(=O)N1C [Compound 561]	me- dium
CCCC[C@H]1C(=O)N[C@@H](Cc2ccc3ccccc3c2)C(=O)N(C)[C@@H](COC(C)(C)C)C(=O)NCC(=O)N(C)CCC=CC(=O)OCC(C)(C)C(=O)C(=O)N2CCCC[C@H]2C(=O)O[C@H](CCc2cc(OC)c(OC)cc2OC)c2cccc(c2)OCC(=O)N1C [Compound 562]	me- dium

Same assay, conditions: A549 cells; proliferation response relative to DMSO control, scored low/medium/high

SMILES	Rel. Prolif., A549
CCCC[C@H]1C(=O)N[C@@H](Cc2ccc3ccccc3c2)C(=O)N(C)[C@@H](COC(C)(C)C)C(=O)NCC(=O)N(C)CCC=CC(=O)OCC(C)(C)C(=O)C(=O)N2CCCC[C@H]2C(=O)O[C@H](CCc2cc(OC)c(OC)c(OC)c2)c2cccc(c2)OCC(=O)N1C [Compound 560]	medium
CCCC[C@H]1C(=O)N[C@@H](Cc2ccc3ccccc3c2)C(=O)N(C)[C@@H](COC(C)(C)C)C(=O)NCC(=O)N(C)CCC=CC(=O)OCC(C)(C)C(=O)C(=O)N2CCCC[C@H]2C(=O)O[C@H](CCc2ccc(OC)c(OC)c2OC)c2cccc(c2)OCC(=O)N1C [Compound 561]	medium
CCCC[C@H]1C(=O)N[C@@H](Cc2ccc3ccccc3c2)C(=O)N(C)[C@@H](COC(C)(C)C)C(=O)NCC(=O)N(C)CCC=CC(=O)OCC(C)(C)C(=O)C(=O)N2CCCC[C@H]2C(=O)O[C@H](CCc2cc(OC)c(OC)cc2OC)c2cccc(c2)OCC(=O)N1C [Compound 562]	medium

Same assay, conditions: A549 cells; proliferation response relative to DMSO, single concentration, scored low/medium/high

SMILES	Rel. Prolif., A549
C=CC(=O)OCC(C)(C)C(=O)C(=O)N1CCCC[C@H]1C(=O)O[C@H](CCc1ccc(OC)c(OC)c1)c1cncc(NC(=O)CCC(=O)OC(C)(C)C)n1 [Compound 13]	low

System: not listed separately
Assay: Nucleoside uptake, single concentration assay (Rel.Uptake); cell line indicated in each table
Type: cell-based
Conditions: nucleoside uptake, single concentration assay, 293T cells, response relative to DMSO
Method: Nucleoside Uptake Assay (uptake). Nuceloside uptake assays were performed with using 3H-Thymidine as described in Guo et al. (2018) Nat. Chem. 11:254-63. Specific cell lines are indicated in each assay and cultured in complete growth media. Activity is scored according to the IC50 values relative to DMSO control. “Low” indicates an IC50 greater than 600 nM, “Medium” indicates an IC50 between 300 nM and 600 nM “High” indicates an IC50 less than 300 nM. “Rel.Uptake” refers to uptake activity characterization relative to a single concentration assay. “Low” indicates a response greater than 0.6 times the activity relative to DMSO, “Medium” indicates a response between 0.6 and 0.3 times the activity relative to DMSO, “High” indicates a response less than 0.3 times the activity relative to DMSO.

SMILES	Rel. Uptake, 293T
COc1ccc(CC[C@H]2OC(=O)[C@@H]3CCCCN3C(=O)C(=O)C(C)(C)COC(=O)C=CCCN(C)C(=O)[C@@H](Cc3ccccc3)NC(=O)CN(C)C(=O)[C@@H](Cc3ccccc3)NC(=O)[C@H](Cc3ccc(O)cc3)N(C)C(=O)COc3ccc(F)c2c3)cc1OC [Compound 1575]	low
COc1ccc(CC[C@H]2OC(=O)[C@@H]3CCCCN3C(=O)C(=O)C(C)(C)COC(=O)C=CCCN(C)C(=O)[C@@H](Cc3ccccc3)NC(=O)CN(C)C(=O)[C@@H](Cc3ccccc3)NC(=O)[C@H](Cc3ccc(O)cc3)N(C)C(=O)COc3cc(F)cc2c3)cc1OC [Compound 1576]	medium
COc1ccc(CC[C@H]2OC(=O)[C@@H]3CCCCN3C(=O)C(=O)C(C)(C)COC(=O)C=CCCN(C)C(=O)[C@@H](Cc3ccccc3)NC(=O)CN(C)C(=O)[C@@H](Cc3ccccc3)NC(=O)[C@H](Cc3ccc(O)cc3)N(C)C(=O)COc3cccc2c3)c(OC)c1OC [Compound 1577]	medium
COc1ccc(CC[C@H]2OC(=O)[C@@H]3CCCCN3C(=O)C(=O)C(C)(C)COC(=O)C=CCCN(C)C(=O)[C@@H](Cc3ccccc3)NC(=O)CN(C)C(=O)[C@@H](Cc3ccccc3)NC(=O)[C@H](Cc3ccc(O)cc3)N(C)C(=O)COc3cc2ccc3F)cc1OC [Compound 1578]	low
COc1ccc(CC[C@H]2OC(=O)[C@@H]3CCCCN3C(=O)C(=O)C(C)(C)COC(=O)C=CCCN(C)C(=O)[C@@H](Cc3ccccc3)NC(=O)CN(C)C(=O)[C@@H](Cc3ccccc3)NC(=O)[C@H](Cc3ccc(O)cc3)N(C)C(=O)COc3cccc2c3F)cc1OC [Compound 1579]	medium
COc1ccc(CC[C@H]2OC(=O)[C@@H]3CCCCN3C(=O)C(=O)C(C)(C)COC(=O)C=CCCN(C)C(=O)[C@@H](Cc3ccccc3)NC(=O)CN(C)C(=O)[C@@H](Cc3ccccc3)NC(=O)[C@H](Cc3ccc(O)cc3)N(C)C(=O)COc3cncc2c3)cc1OC [Compound 1580]	low
COc1cc(OC)c(OC)cc1CC[C@H]1OC(=O)[C@@H]2CCCCN2C(=O)C(=O)C(C)(C)COC(=O)C=CCCN(C)C(=O)[C@@H](Cc2ccccc2)NC(=O)CN(C)C(=O)[C@@H](Cc2ccccc2)NC(=O)[C@H](Cc2ccc(O)cc2)N(C)C(=O)COc2cccc1c2 [Compound 1581]	medium
COc1cc(CC[C@H]2OC(=O)[C@@H]3CCCCN3C(=O)C(=O)C(C)(C)COC(=O)C=CCCN(C)C(=O)[C@@H](Cc3ccccc3)NC(=O)CN(C)C(=O)[C@@H](Cc3ccccc3)NC(=O)[C@H](Cc3ccc(O)cc3)N(C)C(=O)COc3cccc2c3)c(OC)c(OC)c1 [Compound 1582]	low
COc1ccc(OC)c(OC)c1CC[C@H]1OC(=O)[C@@H]2CCCCN2C(=O)C(=O)C(C)(C)COC(=O)C=CCCN(C)C(=O)[C@@H](Cc2ccccc2)NC(=O)CN(C)C(=O)[C@@H](Cc2ccccc2)NC(=O)[C@H](Cc2ccc(O)cc2)N(C)C(=O)COc2cccc1c2 [Compound 1583]	low
COc1ccc(CC[C@H]2OC(=O)[C@@H]3CCCCN3C(=O)C(=O)C(C)(C)COC(=O)C=CCCN(C)C(=O)[C@@H](Cc3ccccc3)NC(=O)CN(C)C(=O)[C@@H](Cc3ccccc3)NC(=O)[C@H](Cc3ccc(O)cc3)N(C)C(=O)COc3cccc2c3)c(O)c1OC [Compound 1584]	low
COc1ccc(CC[C@H]2OC(=O)[C@@H]3CCCCN3C(=O)C(=O)C(C)(C)COC(=O)C=CCCN(C)C(=O)[C@H](CC(C)C)N(C)C(=O)[C@H]3CCCN3C(=O)[C@H](Cc3ccc(CNC(=O)c4ccccc4)cc3)NC(=O)[C@H](c3ccccc3)NC(=O)CCC(=O)Nc3cccc2c3)cc1OC [Compound 1585]	High (“High” indicates a response less than 0.3 times the activity relative to DMSO)
COc1ccc(CC[C@H]2OC(=O)[C@@H]3CCCCN3C(=O)C(=O)C(C)(C)COC(=O)C=CCCN(C)C(=O)[C@H](CC(C)C)N(C)C(=O)[C@H]3CCCN3C(=O)[C@H](Cc3ccc(CNC(=O)Cc4ccccc4)cc3)NC(=O)[C@H](c3ccccc3)NC(=O)CCC(=O)Nc3cccc2c3)cc1OC [Compound 1586]	Med
COc1ccc(CC[C@H]2OC(=O)[C@@H]3CCCCN3C(=O)C(=O)C(C)(C)COC(=O)C=CCCN(C)C(=O)[C@H](CC(C)C)N(C)C(=O)[C@H]3CCCN3C(=O)[C@H](Cc3ccc(CNC(=O)CN(C)C)cc3)NC(=O)[C@H](c3ccccc3)NC(=O)CCC(=O)Nc3cccc2c3)cc1OC [Compound 1587]	Low (“Low” indicates a response greater than 0.6 times the activity relative to DMSO)
COc1ccc(CC[C@H]2OC(=O)[C@@H]3CCCCN3C(=O)C(=O)C(C)(C)COC(=O)C=CCCN(C)C(=O)[C@H](CC(C)C)N(C)C(=O)[C@H]3CCCN3C(=O)[C@H](Cc3cccc(NC(C)=O)c3)NC(=O)[C@H](c3ccccc3)NC(=O)CCC(=O)Nc3cccc2c3)cc1OC [Compound 1588]	High (“High” indicates a response less than 0.3 times the activity relative to DMSO)
COc1ccc(CC[C@H]2OC(=O)[C@@H]3CCCCN3C(=O)C(=O)C(C)(C)COC(=O)C=CCCN(C)C(=O)[C@H](CC(C)C)N(C)C(=O)[C@H]3CCCN3C(=O)[C@H](Cc3ccc(NC(=O)Cc4cccnc4)cc3)NC(=O)[C@H](c3ccccc3)NC(=O)CCC(=O)Nc3cccc2c3)cc1OC [Compound 1589]	Low (“Low” indicates a response greater than 0.6 times the activity relative to DMSO)
COc1ccc(CC[C@H]2OC(=O)[C@@H]3CCCCN3C(=O)C(=O)C(C)(C)COC(=O)C=CCCN(C)C(=O)[C@H](CC(C)C)N(C)C(=O)[C@H]3CCCN3C(=O)[C@H](Cc3ccc(CC(=O)NCc4ccccc4)cc3)NC(=O)[C@H](c3ccccc3)NC(=O)CCC(=O)Nc3cccc2c3)cc1OC [Compound 1590]	High (“High” indicates a response less than 0.3 times the activity relative to DMSO)
CCCCCCNC(=O)Cc1ccc(C[C@@H]2NC(=O)[C@H](c3ccccc3)NC(=O)CCC(=O)Nc3cccc(c3)[C@@H](CCc3ccc(OC)c(OC)c3)OC(=O)[C@@H]3CCCCN3C(=O)C(=O)C(C)(C)COC(=O)C=CCCN(C)C(=O)[C@H](CC(C)C)N(C)C(=O)[C@H]3CCCN3C2=O)cc1 [Compound 1591]	Med
C=C1NCC(=O)N(C)CC/C=C\C(=O)OCC(C)(C)C(=O)C(=O)N2CCCC[C@H]2C(=O)O[C@H](CCc2ccc(OC)c(OC)c2)c2cccc(c2)NC(=O)CCC(=O)N(C)[C@@H](CC(C)C)C(=O)N[C@H](Cc2ccccc2)C(=O)N(C)[C@H]1[C@@H](C)CC [Compound 1592]	Low (“Low” indicates a response greater than 0.6 times the activity relative to DMSO)
COc1ccc(CC[C@H]2OC(=O)[C@@H]3CCCCN3C(=O)C(=O)C(C)(C)COC(=O)C=CCCN(C)C(=O)[C@@H]3CCCN3C(=O)[C@H](COC(C)(C)C)N(C)C(=O)[C@@H](c3ccccc3)NC(=O)[C@H](C)N(C)C(=O)COc3cc(F)cc2c3)cc1OC [Compound 1595]	Low (“Low” indicates a response greater than 0.6 times the activity relative to DMSO)
COc1ccc(CC[C@H]2OC(=O)[C@@H]3CCCCN3C(=O)C(=O)C(C)(C)COC(=O)C=CCCN(C)C(=O)[C@@H]3CCCN3C(=O)[C@H](COC(C)(C)C)N(C)C(=O)[C@H](c3ccccc3)NC(=O)[C@H](C)N(C)C(=O)COc3cc(F)cc2c3)cc1OC [Compound 1596]	Low (“Low” indicates a response greater than 0.6 times the activity relative to DMSO)
